Assay: molar heat capacity at constant pressure
Settings: 101.33 kPa

OC[C@H](O)C(O)[C@@H](O)CO [L-(-)-arabitol]
molar heat capacity at constant pressure [J/K/mol]
Settings	Small sample (50 mg) DSC	relaxation calorimetry
244.15 K, Crystal	168.75	–
245.15 K, Crystal	169.35	–
246.15 K, Crystal	169.88	–
247.15 K, Crystal	170.55	–
248.15 K, Crystal	171.06	–
249.15 K, Crystal	171.85	–
250 K, Crystal	–	173.24
250.15 K, Crystal	172.59	–
251.15 K, Crystal	173.21	–
251.96 K, Crystal	–	174.6
252.15 K, Crystal	173.86	–
253.15 K, Crystal	174.57	–
254.15 K, Crystal	175.18	–
255.15 K, Crystal	176.03	–
256.15 K, Crystal	176.9	–
257.15 K, Crystal	177.61	–
258.15 K, Crystal	178.4	–
259.15 K, Crystal	179.26	–
260 K, Crystal	–	179.82
260.15 K, Crystal	180.04	–
261.15 K, Crystal	180.97	–
262.07 K, Crystal	–	180.97
262.15 K, Crystal	181.78	–
263.15 K, Crystal	182.59	–
264.15 K, Crystal	183.52	–
265.15 K, Crystal	184.23	–
266.15 K, Crystal	184.83	–
267.15 K, Crystal	185.69	–
268.15 K, Crystal	186.57	–
269.15 K, Crystal	187.58	–
270 K, Crystal	–	186.56
270.15 K, Crystal	188.37	–
271.15 K, Crystal	189.06	–
272.13 K, Crystal	–	188.16
272.15 K, Crystal	189.78	–
273.15 K, Crystal	190.61	188.71
274.15 K, Crystal	191.19	–
275.15 K, Crystal	191.83	–
276.15 K, Crystal	192.48	–
277.15 K, Crystal	193.16	–
278.15 K, Crystal	193.84	–
279.15 K, Crystal	194.6	–
280 K, Crystal	–	193.46
280.15 K, Crystal	195.16	–
281.15 K, Crystal	195.85	–
282.15 K, Crystal	196.47	–
282.16 K, Crystal	–	194.74
283.15 K, Crystal	197.03	–
284.15 K, Crystal	197.67	–
285.15 K, Crystal	198.35	–
286.15 K, Crystal	198.9	–
287.15 K, Crystal	199.37	–
288.15 K, Crystal	200.05	–
289.15 K, Crystal	200.75	–
290 K, Crystal	–	200.53
290.15 K, Crystal	201.49	–
291.15 K, Crystal	202.11	–
292.15 K, Crystal	202.64	–
292.27 K, Crystal	–	201.73
293.15 K, Crystal	203.3	–
294.15 K, Crystal	203.94	–
295.15 K, Crystal	204.77	–
296.15 K, Crystal	205.37	–
297.15 K, Crystal	206.12	–
298.15 K, Crystal	206.77	206.44
299.15 K, Crystal	207.42	–
300 K, Crystal	–	207.8
300.15 K, Crystal	208.27	–
301.15 K, Crystal	209.11	–
302.15 K, Crystal	209.85	–
302.3 K, Crystal	–	209.95
303.15 K, Crystal	210.71	–
304.15 K, Crystal	211.4	–
305 K, Crystal	212.36	–
305.15 K, Crystal	212.38	–
306.15 K, Crystal	213.15	–
307.15 K, Crystal	214.11	–
308.15 K, Crystal	215.16	–
309.15 K, Crystal	216.11	–
310 K, Crystal	217.12	–
310.15 K, Crystal	217.05	–
311.15 K, Crystal	218.22	–
312.15 K, Crystal	219.18	–
313.15 K, Crystal	220.1	–
314.15 K, Crystal	221.04	–
315 K, Crystal	221.96	–
315.15 K, Crystal	222.13	–
316.15 K, Crystal	223.18	–
317.15 K, Crystal	224.21	–
318.15 K, Crystal	225.16	–
319.15 K, Crystal	226.14	–
320 K, Crystal	226.85	–
320.15 K, Crystal	227.12	–
321.15 K, Crystal	228.27	–
322.15 K, Crystal	229.22	–
323.15 K, Crystal	230.47	–
324.15 K, Crystal	231.33	–
325 K, Crystal	231.9	–
325.15 K, Crystal	232.46	–
326.15 K, Crystal	233.49	–
327.15 K, Crystal	234.58	–
328.15 K, Crystal	235.6	–
329.15 K, Crystal	236.61	–
330 K, Crystal	237.4	–
330.15 K, Crystal	237.74	–
331.15 K, Crystal	238.74	–
332.15 K, Crystal	239.92	–
333.15 K, Crystal	241.19	–
335 K, Crystal	243.8	–
340 K, Crystal	251.69	–
345 K, Crystal	261.85	–
387.05 K, Liquid	440.32	–
387.15 K, Liquid	440.19	–
388.15 K, Liquid	440.32	–
389.15 K, Liquid	440.39	–
390 K, Liquid	440.74	–
390.15 K, Liquid	440.65	–
391.15 K, Liquid	440.67	–
392.15 K, Liquid	440.92	–
393.15 K, Liquid	441.37	–
394.15 K, Liquid	441.72	–
395 K, Liquid	442.06	–
395.15 K, Liquid	441.9	–
396.15 K, Liquid	442.46	–
397.15 K, Liquid	443.18	–
398.15 K, Liquid	443.38	–
399.15 K, Liquid	443.7	–
400 K, Liquid	443.76	–
400.15 K, Liquid	444.18	–
401.15 K, Liquid	444.55	–
402.15 K, Liquid	444.8	–
403.15 K, Liquid	445.3	–
404.15 K, Liquid	445.48	–
405 K, Liquid	445.85	–
405.15 K, Liquid	445.82	–
406.15 K, Liquid	446.12	–
407.15 K, Liquid	446.57	–
408.15 K, Liquid	447.22	–
409.15 K, Liquid	447.57	–
410 K, Liquid	448.32	–
410.15 K, Liquid	448.06	–
411.15 K, Liquid	448.75	–
412.15 K, Liquid	449.48	–
413.15 K, Liquid	450.17	–
414.15 K, Liquid	450.82	–
415 K, Liquid	451.18	–
415.15 K, Liquid	451.25	–
416.15 K, Liquid	451.74	–
417.15 K, Liquid	452.58	–
418.15 K, Liquid	453.6	–

Source: the NIST ThermoML archive (doi:10.1016/j.jct.2017.08.004)
